Reference: patent publication US20200113853A1, “GAMMA-HYDROXYBUTYRATE COMPOSITIONS AND THEIR USE FOR THE TREATMENT OF DISORDERS” (Jazz Pharmaceuticals Ireland Limited, priority 2017, published 2020)

Assays:
[1] = Maximum solubility of GHB as a function of pH of the aqueous medium; assay type: physicochemical
Method: It will be understood that the maximum solubility of GHB is affected by the pH of the aqueous medium. For example, at about pH 4, the maximum amount of Na⋅GHB that can be dissolved is about 450 mg/mL.

[2] = 2.25 g and 4.45 g doses, relative to IV administration; cited from earlier work
[3] = generally considered; Yu et al.; cited from earlier work

| Compound | maximum amount that can be dissolved ([1]; at about pH 4, aqueous medium) | absolute bioavailability [2] | solubility class [3] | minimal pH that will dissolve 750 mg/mL GHB ([1]; 750 mg/mL) |
| --- | --- | --- | --- | --- |
| O=C([O-])CCCO.[Na+] [sodium oxybate, sodium gamma-hydroxybutyrate] | about 450 mg/mL | 88% | high solubility | – |
| O=C(O)CCCO [GHB, gamma-hydroxybutyrate] | – | – | – | ~6.8 |
